Here are results for 2 compounds from patent US20210236698A1, “ANTIMICROBIAL LOCKING SOLUTIONS COMPRISING TAURINAMIDE DERIVATIVES AND BIOLOGICALLY ACCEPTABLE SALTS AND ACIDS, WITH THE ADDITION OF SMALL CONCENTRATIONS OF HEPARIN” (ND Partners, LLC, priority 2004, published 2021).

One data set relates to red cells. Format: cell-based. The source says:
The trial results by Dr Allon were examined by researchers in a group of experiments at the Naval Blood Laboratory and Boston University Medical School. […] However, the researchers were not able to determine exactly how their results were relevant to the findings in the University of Alabama clinical trial.

A short description of data set [1]: Long term stability tests of taurolidine in solution. Format: physicochemical. Conditions: citric acid and sodium citrate in combination, versus solution prepared with PVP. The text has this: In addition, citric acid is a known antioxidant. […] The composition employed in the practice of the present invention preferably also contains a pharmacologically acceptable carrier solution, such as, water, Ringer's solution, or saline.

Data set [2] is described as follows: Biocidal effectiveness of taurolidine solution with citrate/citric acid pH adjustment. The note with it: citrates and citric acid, pH of end solution in the vicinity of 5.2 to 6.5. The source says: The concentration of taurolidine in such solutions is preferably in the range of from about 0.4 to about 5% by weight, depending upon the solubility of the compound. […] The approach creates a buffer system of citric acid/sodium citrate by adjustment of pH using sodium hydroxide. This buffer system also resists changes in the pH due to the oxidation of formaldehyde to formic acid.

On to heparin, for which the “changes to blood in contact with solution” value in the data set on red cells is “did not happen”.
Consider `O=S1(=O)CCN(CN2CCS(=O)(=O)NC2)CN1` [taurolidine], for which the “precipitation of solid taurolidine and reaction products from solution” value in data set [1] is “prevents or severely slows down”. Also, in the data set with red cells, the “changes to blood in contact with solution” value was “morphological changes to red cells”. Moreover, the biocidal effectiveness result in data set [2] was “substantially increases”.
